Results taken from US20210238162A1, “CHEMICAL COMPOUNDS” (GlaxoSmithKline Intellectual Property Development Limited, priority 2015, published 2021).

Target: T1, haematopoietic prostaglandin D synthase (H-PGDS) (Homo sapiens, UniProt O60760)
T1 construct: Full length human H-PGDS cDNA (Invitrogen Ultimate ORF IOH13026) was amplified by PCR; made in house; host or cells: E. coli BL21 (DE3*), vector pET22b+
Test: H-PGDS RapidFire High Throughput Mass Spectrometry Assay
Assay type: biochemical
Details: H-PGDS RapidFire MS assay, mean pIC50; read-out: Potency Range (mean pIC50) (converted)
Method in brief: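 PGH2 (~10 μM burst) generated in situ from arachidonic acid by FLAG-tagged human COX-2 (Sf9-expressed), then converted to PGD2 by full-length human His-tagged H-PGDS from E. coli. PGD2 and PGF2α (substrate surrogate) quantified by RapidFire SPE-triple quadrupole MS; percent conversion calculated.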

T1 sequence (O60760 whole entry): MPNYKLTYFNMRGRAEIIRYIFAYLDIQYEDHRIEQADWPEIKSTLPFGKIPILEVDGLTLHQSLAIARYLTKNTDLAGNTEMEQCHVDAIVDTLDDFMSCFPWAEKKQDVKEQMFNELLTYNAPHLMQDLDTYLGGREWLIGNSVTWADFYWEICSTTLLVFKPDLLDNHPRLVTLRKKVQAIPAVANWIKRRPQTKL

Row | SMILES | IC50
1 | CCc1ccc2cc(C(=O)NC3CCN(c4nnnn4C)CC3)cnc2c1 [Example 110, 7-Ethyl-N-(1-(1-methyl-1H-tetrazol-5-yl)piperidin-4-yl)quinoline-3-carboxamide] | 10 to 79.4 nM
2 | O=C1CC(NC(=O)c2cnc3cc(C4CC4)c(Cl)cc3c2)c2ccccc2N1 (stereo not shown) [Example 37, 6-Chloro-7-cyclopropyl-N-(2-oxo-1,2,3,4-tetrahydroquinolin-4-yl)quinoline-3-carboxamide] | < 10 nM
3 | CC(O)CO[C@H]1CC[C@H](NC(=O)c2cnc3cc(OC(F)F)ccc3c2)CC1 (stereo partly drawn) [Example 16, 7-(Difluoromethoxy)-N-(trans-4-(2-hvdroxypropoxy)cyclohexyl)quinoline-3-carboxamide] | 10 to 79.4 nM
4 | O=C(N[C@H]1CCC[C@H]1O)c1cnc2cc(OC(F)F)c(F)cc2c1 [Example 52, 7-(Difluoromethoxy)-6-fluoro-N-((1S,2R)-2-hydroxycyclopentyl)quinoline-3-carboxamide] | 100 to 1000 nM
5 | O=C(N[C@H]1C[C@H](NCC(F)(F)F)C1)c1cnc2cc(OC(F)F)c(F)cc2c1 [Example 59, 7-(Difluoromethoxy)-6-fluoro-N-(trans-3-((2,2,2-trifluoroethyl)amino)cyclobutyl)quinoline-3-carboxamide] | 10 to 79.4 nM
6 | CC(O)(CO[C@H]1CC[C@H](NC(=O)c2cnc3cc(OC(F)F)c(F)cc3c2)CC1)C(F)(F)F (stereo partly drawn) [Example 76, 7-(Difluoromethoxy)-6-fluoro-N-(trans-4-(3,3,3-trifluoro-2-hydroxy-2-methylpropoxy)cyclohexyl)quinoline-3-carboxamide] | 10 to 79.4 nM
7 | C[C@@H](N[C@H]1C[C@H](NC(=O)c2cnc3cc(OC(F)F)c(F)cc3c2)C1)C(F)F [Example 74, 7-(Difluoromethoxy)-N-(trans-3-(((R)-1,1-difluoropropan-2-yl)amino)cyclobutyl)-6-fluoroquinoline-3-carboxamide] | 10 to 79.4 nM
8 | CN(C)C(=O)[C@@H]1CC[C@@H](NC(=O)c2cnc3cc(OC(F)F)c(Cl)cc3c2)CO1 (racemic) [Example 126, Racemic 6-Chloro-7-(difluoromethoxy)-N-((3r,6s)-6-(dimethylcarbamoyl)tetrahydro-2H-pyran-3-yl)quinoline-3-carboxamide] | 10 to 79.4 nM
9 | O=C(NC1CCCOC1)c1cnc2cc(OC(F)F)c(Cl)cc2c1 (stereo not shown) [Example 149, 6-Chloro-7-(difluoromethoxy)-N-(tetrahydro-2H-pyran-3-yl)quinoline-3-carboxamide] | 10 to 79.4 nM
10 | O=C(N[C@H]1CC[C@H](N[C@@H](CO)C(F)(F)F)CC1)c1cnc2cc(OC(F)F)c(Cl)cc2c1 [Example 131, 6-Chloro-7-(difluoromethoxy)-N-(trans-4-(((S)-1,1,1-trifluoro-3-hydroxypropan-2-yl)amino)cyclohexyl)quinoline-3-carboxamide] | < 10 nM
11 | COc1cc(F)c2cc(C(=O)NC3CCN(c4nnnn4C)CC3)cnc2c1 [Example 30, 5-Fluoro-7-methoxy-N-(1-(1-methyl-1H-tetrazol-5-yl)piperidin-4-yl)quinoline-3-carboxamide] | 10 to 79.4 nM
12 | CC(C)(O)[C@H]1CC[C@H](NC(=O)c2cnc3cc(N=[N+]=[N-])c(Cl)cc3c2)CC1 [Example 168, 7-Azido-6-chloro-N-(trans-4-(2-hydroxypropan-2-yl)cyclohexyl)quinoline-3-carboxamide] | 10 to 79.4 nM
13 | C[C@@H](N[C@H]1CC[C@H](NC(=O)c2cnc3cc(OC(F)F)c(F)cc3c2)CC1)C(F)(F)F [Example 62, 7-(Difluoromethoxy)-6-fluoro-N-(trans-4-(((R)-1,1,1-trifluoropropan-2-yl)amino)cyclohexyl)quinoline-3-carboxamide] | 10 to 79.4 nM
14 | COc1cc2ncc(C(=O)NC3CCN(c4nnnn4C)CC3)cc2cc1C [Example 29, 7-Methoxy-6-methyl-N-(1-(1-methyl-1H-tetrazol-5-yl)piperidin-4-yl)quinoline-3-carboxamide] | 10 to 79.4 nM
15 | CN(C)c1cc2ncc(C(=O)N[C@H]3CC[C@H](C(C)(C)O)CC3)cc2cc1F [Example 160, 7-(Dimethylamino)-6-fluoro-N-(trans-4-(2-hydroxypropan-2-yl)cyclohexyl)quinoline-3-carboxamide] | < 10 nM
16 | C[C@H]1CCN1c1cc2ncc(C(=O)N[C@H]3CCNC3=O)cc2cc1Cl [Example 188, 6-Chloro-7-((S)-2-methylazetidin-1-yl)-N—((S)-2-oxopyrrolidin-3-yl)quinoline-3-carboxamide] | 10 to 79.4 nM
17 | C[C@@H]1CNC(=O)[C@H]1NC(=O)c1cnc2cc(N3CC(F)C3)c(F)cc2c1 [Example 206, 6-Fluoro-7-(3-fluoroazetidin-1-yl)-N-((3S,4R)-4-methyl-2-oxopyrrolidin-3-yl)quinoline-3-carboxamide] | 10 to 79.4 nM
18 | C#CCNC(=O)CO[C@H]1CC[C@H](NC(=O)c2cnc3cc(OC(F)F)c(F)cc3c2)CC1 [Example 102, 7-(Difluoromethoxy)-6-fluoro-N-(trans-4-(2-oxo-2-(prop-2-yn-1-ylamino)ethoxy)cyclohexyl)quinoline-3-carboxamide] | 10 to 79.4 nM
19 | CC(C)(O)[C@@H]1CC[C@@H](NC(=O)c2cnc3cc(OC(F)F)ccc3c2)CO1 (racemic) [Example 22, Racemic 7-(Difluoromethoxy)-N-((3s,6r)-6-(2-hydroxypropan-2-yl)tetrahydro-2H-pyran-3-yl)quinoline-3-carboxamide] | 10 to 79.4 nM
20 | O=C(NC1CCN(c2cccnc2)CC1)c1cnc2cc(OC(F)F)c(F)cc2c1 [Example 96, 7-(Difluoromethoxy)-6-fluoro-N-(1-(pyridin-3-yl)piperidin-4-yl)quinoline-3-carboxamide] | 10 to 79.4 nM
21 | O=C(N[C@H]1CCN(CC2CC2)C1=O)c1cnc2cc(OC(F)F)c(F)cc2c1 [Example 53, (S)—N-(1-(Cyclopropylmethyl)-2-oxopyrrolidin-3-yl)-7-(difluoromethoxy)-6-fluoroquinoline-3-carboxamide] | 10 to 79.4 nM
22 | CC(C)C(O)CO[C@H]1CC[C@H](NC(=O)c2cnc3cc(OC(F)F)c(F)cc3c2)CC1 (stereo partly drawn) [Example 79, 7-(Difluoromethoxy)-6-fluoro-N-(trans-4-(2-hydroxy-3-methylbutoxy)cyclohexyl)quinoline-3-carboxamide] | 10 to 79.4 nM
23 | Cc1cc(NC(=O)c2cnc3cc(OC(F)F)ccc3c2)[nH]n1 [Example 8, 7-(Difluoromethoxy)-N-(3-methyl-1H-pyrazol-5-yl)quinoline-3-carboxamide] | 10 to 79.4 nM
24 | CC(C)(O)[C@H]1CC[C@H](NC(=O)c2cnc3cc(C4CC4)c(F)cc3c2)CC1 [Example 42, 7-Cyclopropyl-6-fluoro-N-(trans-4-(2-hydroxypropan-2-yl)cyclohexyl)quinoline-3-carboxamide] | < 10 nM
25 | CS(=O)(=O)N[C@H]1CC[C@H](NC(=O)c2cnc3cc(OC(F)F)c(F)cc3c2)CC1 [Example 56, 7-(Difluoromethoxy)-6-fluoro-N-(trans-4-(methylsulfonamido)cyclohexyl)quinoline-3-carboxamide] | 10 to 79.4 nM
26 | C[C@]1(O)C[C@@H](NC(=O)c2cnc3cc(C4CCC4)c(Cl)cc3c2)C1 [Example 180, 6-Chloro-7-cyclobutyl-N-((1s,3s)-3-hydroxy-3-methylcyclobutyl)quinoline-3-carboxamide] | 10 to 79.4 nM

Same assay, conditions: in at least one experimental run; read-out: H-PGDS pIC50 value (converted)

Row | SMILES | IC50
27 | O=C(N[C@H]1C[C@H](NCC(F)(F)F)C1)c1cnc2cc(OC(F)F)c(F)cc2c1 [Example 59, 7-(Difluoromethoxy)-6-fluoro-N-(trans-3-((2,2,2-trifluoroethyl)amino)cyclobutyl)quinoline-3-carboxamide] | 50.1 nM
28 | CN(C)c1cc2ncc(C(=O)N[C@H]3CC[C@H](C(C)(C)O)CC3)cc2cc1F [Example 160, 7-(Dimethylamino)-6-fluoro-N-(trans-4-(2-hydroxypropan-2-yl)cyclohexyl)quinoline-3-carboxamide] | 3.98 nM
